Activity calls are given as the source filed them.
Columns and labels:
Streptococcus = experiment: Group A Streptococcus viability loss, dose response, counter-screen for streptokinase expression inhibitor project, luminescence, BacTiterGlo (AID 1915); assay type: functional, organism-based;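 also: potency for reduction of bacterial viability or growth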
Hexokinase HKDC1 [1] = biological target: T1, Hexokinase HKDC1 (Homo sapiens, UniProt Q2TB90); experiment: HKDC1 hexokinase inhibitors, dose response, biochemical, W721R variant (AID 504729); assay type: functional
T1 sequence (Q2TB90 whole entry): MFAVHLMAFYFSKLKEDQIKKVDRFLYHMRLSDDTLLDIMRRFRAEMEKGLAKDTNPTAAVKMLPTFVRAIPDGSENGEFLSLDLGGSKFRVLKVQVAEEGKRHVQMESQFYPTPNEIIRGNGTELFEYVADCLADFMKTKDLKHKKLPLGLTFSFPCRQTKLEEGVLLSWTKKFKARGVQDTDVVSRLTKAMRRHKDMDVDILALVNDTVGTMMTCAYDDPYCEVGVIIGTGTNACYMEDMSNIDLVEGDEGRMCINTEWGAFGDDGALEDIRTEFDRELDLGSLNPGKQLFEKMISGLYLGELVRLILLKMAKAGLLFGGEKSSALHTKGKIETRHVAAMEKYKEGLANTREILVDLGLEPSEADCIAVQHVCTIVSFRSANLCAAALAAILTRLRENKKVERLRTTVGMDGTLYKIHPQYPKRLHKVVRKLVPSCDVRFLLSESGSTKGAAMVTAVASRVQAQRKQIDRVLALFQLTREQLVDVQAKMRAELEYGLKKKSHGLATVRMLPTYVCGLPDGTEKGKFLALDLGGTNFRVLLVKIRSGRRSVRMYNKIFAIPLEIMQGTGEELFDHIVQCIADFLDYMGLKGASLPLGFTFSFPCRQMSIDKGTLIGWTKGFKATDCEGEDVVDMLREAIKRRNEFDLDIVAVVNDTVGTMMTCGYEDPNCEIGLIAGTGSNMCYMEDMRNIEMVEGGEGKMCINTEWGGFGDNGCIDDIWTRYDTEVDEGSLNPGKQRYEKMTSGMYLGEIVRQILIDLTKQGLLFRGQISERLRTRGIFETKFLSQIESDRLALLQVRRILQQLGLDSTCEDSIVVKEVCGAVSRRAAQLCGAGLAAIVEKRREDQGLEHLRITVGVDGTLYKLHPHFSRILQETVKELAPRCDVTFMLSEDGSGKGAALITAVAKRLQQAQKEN

[2] = test system: Streptococcus sp. 'group A'; experiment: growth inhibition of control SK(-) GAS strain, dose response, counter-screen for streptokinase expression inhibitor project, luminescence, kanamycin, BacTiterGlo, confirmation (AID 1900); assay type: functional, organism-based
Large T antigen = Large T antigen (Simian virus 40, UniProt P03070); assay type: functional, Betapolyomavirus macacae;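 also: Confirmatory-stage PubChem screen for compounds that inhibit SV40 T antigen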
Trypsin = Trypsin (Sus scrofa, UniProt P00761); experiment: porcine trypsin inhibitors, dose response, selectivity assay for Rce1 protease inhibitor project, biochemical, quenched peptide fluorescence, cherry-pick (AID 488789)
CAAX prenyl protease 2 = CAAX prenyl protease 2 (Saccharomyces cerevisiae S288c, UniProt Q03530); assay type: biochemical
[3] = biological target: Alkaline phosphatase, placental type (Homo sapiens, UniProt P05187); experiment: PLAP enzyme inhibitors, confirmation, biochemical, luminescence (AID 1512); assay type: functional
[4] = biological target: T2, Alkaline phosphatase, tissue-nonspecific isozyme (Homo sapiens, UniProt P05186); experiment: human TNAP enzyme inhibitors, SAR follow-up, biochemical, luminescent, dose response (AID 1056)
T2 sequence (P05186 whole entry): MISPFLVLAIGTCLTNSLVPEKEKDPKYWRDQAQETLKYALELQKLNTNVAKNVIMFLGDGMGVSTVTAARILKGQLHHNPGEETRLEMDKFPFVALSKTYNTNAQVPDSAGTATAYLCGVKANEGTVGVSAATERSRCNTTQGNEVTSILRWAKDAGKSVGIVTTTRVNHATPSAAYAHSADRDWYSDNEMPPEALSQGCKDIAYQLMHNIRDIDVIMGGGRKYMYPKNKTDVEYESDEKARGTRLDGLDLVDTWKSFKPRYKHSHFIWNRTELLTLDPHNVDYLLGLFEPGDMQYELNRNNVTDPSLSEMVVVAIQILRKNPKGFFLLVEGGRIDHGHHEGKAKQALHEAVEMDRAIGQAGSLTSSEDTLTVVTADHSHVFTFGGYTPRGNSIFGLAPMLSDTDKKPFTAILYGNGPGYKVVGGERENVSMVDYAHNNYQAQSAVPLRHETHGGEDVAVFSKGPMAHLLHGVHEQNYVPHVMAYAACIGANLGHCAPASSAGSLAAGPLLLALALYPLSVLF

[5] = biological target: Intestinal-type alkaline phosphatase (Homo sapiens, UniProt P09923); experiment: human intestinal alkaline phosphatase activators, dose response, biochemical, luminescence, uHTS hits (AID 463120); assay type: functional
[6] = biological target: T3, Runt-related transcription factor 1/Core-binding factor subunit beta (Homo sapiens, UniProt Q01196+Q13951); experiment: inhibitors of RUNX1 Runt–CBFb-SMMHC binding, primary screen, biochemical, FRET, Cerulean-Runt, Venus-CBFb-SMMHC, uHTS (AID 1434); assay type: protein assay;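 also: partner is the CBFb-SMMHC leukemia fusion protein rather than wild-type CBFb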
[7] = biological target: T3, Runt-related transcription factor 1/Core-binding factor subunit beta; experiment: inhibitors of RUNX1 Runt–CBFb-SMMHC binding, biochemical, TR-FRET (AID 1438); assay type: protein assay
[8] = Shn3 3'UTR reporter inhibitors, dose response, cell-based, Clone20 osteoblasts, firefly luciferase, cherry-picked (AID 624132); assay type: functional;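 also: firefly luciferase luminescence from reporter carrying the Shn3 3'UTR in osteoblasts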
Hexokinase-1 = biological target: T4, Hexokinase-1 (Homo sapiens, UniProt P19367); experiment: hexokinase 1 activators, dose response, selectivity assay for HKDC1 activator project, biochemical (AID 504762); assay type: functional
T4 sequence (P19367 whole entry): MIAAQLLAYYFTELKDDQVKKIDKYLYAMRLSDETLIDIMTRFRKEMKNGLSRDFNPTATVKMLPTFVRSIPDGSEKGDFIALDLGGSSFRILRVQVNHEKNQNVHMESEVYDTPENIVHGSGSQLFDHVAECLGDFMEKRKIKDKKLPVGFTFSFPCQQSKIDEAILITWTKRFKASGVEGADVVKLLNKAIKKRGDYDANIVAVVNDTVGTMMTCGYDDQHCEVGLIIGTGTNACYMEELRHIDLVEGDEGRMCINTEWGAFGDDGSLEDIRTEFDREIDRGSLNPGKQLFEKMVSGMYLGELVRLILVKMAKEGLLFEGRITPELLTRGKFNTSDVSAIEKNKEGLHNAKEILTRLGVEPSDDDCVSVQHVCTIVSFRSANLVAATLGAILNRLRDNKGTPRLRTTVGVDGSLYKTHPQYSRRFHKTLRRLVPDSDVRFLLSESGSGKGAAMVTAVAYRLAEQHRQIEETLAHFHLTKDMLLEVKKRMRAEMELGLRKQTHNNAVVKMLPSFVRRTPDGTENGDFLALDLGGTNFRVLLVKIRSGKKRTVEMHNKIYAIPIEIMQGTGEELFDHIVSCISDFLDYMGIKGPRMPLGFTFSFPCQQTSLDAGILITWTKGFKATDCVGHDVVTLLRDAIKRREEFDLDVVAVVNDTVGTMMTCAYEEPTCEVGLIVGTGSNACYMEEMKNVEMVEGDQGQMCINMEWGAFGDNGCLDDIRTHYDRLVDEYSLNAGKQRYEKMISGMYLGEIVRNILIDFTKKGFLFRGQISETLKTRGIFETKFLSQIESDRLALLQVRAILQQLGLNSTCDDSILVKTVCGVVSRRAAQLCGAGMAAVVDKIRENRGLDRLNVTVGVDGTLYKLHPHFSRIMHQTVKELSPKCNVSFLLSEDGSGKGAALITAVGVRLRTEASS

[9] = biological target: Heat shock protein HSP 90-alpha (Homo sapiens, UniProt P07900); assay type: functional, organism-based
Nonstructural protein 1 = Nonstructural protein 1 (Influenza A virus, UniProt Q194T2); assay type: functional, Influenza A virus (A/California/07/2009(H1N1))
Hexokinase HKDC1 [10] = biological target: T1, Hexokinase HKDC1; experiment: HKDC1 hexokinase activators, dose response, biochemical, W721R variant (AID 504730); assay type: functional
[11] = HEp-2 cell cytotoxicity, dose response, cytotoxicity control for RSV inhibitor project, HTS (AID 2410); assay type: functional; settings: human respiratory syncytial virus
[12] = biological target: T5, Mitochondrial peptide methionine sulfoxide reductase (Bos taurus, UniProt P54149); experiment: Absorbance-based biochemical high throughput dose response assay for activators of Methionine sulfoxide reductase A (MsrA).; assay type: functional
T5 sequence (P54149 whole entry): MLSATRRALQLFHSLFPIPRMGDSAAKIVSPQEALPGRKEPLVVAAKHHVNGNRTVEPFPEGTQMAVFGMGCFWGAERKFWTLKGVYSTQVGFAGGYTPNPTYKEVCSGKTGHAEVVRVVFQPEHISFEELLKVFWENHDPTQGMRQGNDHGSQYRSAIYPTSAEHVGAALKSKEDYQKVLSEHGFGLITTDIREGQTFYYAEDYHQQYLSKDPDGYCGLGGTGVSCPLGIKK

Hexokinase = Hexokinase (Trypanosoma brucei, UniProt Q38C41); experiment: Confirmation assay for inhibitors of Trypanosoma brucei hexokinase 1-Analogue-first series. [Related pubchem assays (depositor defined):AID1430, AID1632, AID2516, AID2560, AID2579, AID2600, AID449725, AID492951]; assay type: functional
[13] = biological target: Glucose-6-phosphate 1-dehydrogenase (Homo sapiens, UniProt P11413); experiment: human G6PD enzyme inhibitors, dose response, selectivity assay for P. falciparum G6PD inhibitor project, biochemical, fluorescence (AID 504792); assay type: functional
[14] = biological target: T6, Corticotropin-releasing factor receptor 2/Corticotropin-releasing factor-binding protein (Homo sapiens, UniProt P24387+Q13324); experiment: activators of CRF receptor 2 with binding protein – uHTS hits, confirmation (AID 602473); assay type: functional; settings: read-out: EC50_Mean
T6 sequence (Q13324 whole entry): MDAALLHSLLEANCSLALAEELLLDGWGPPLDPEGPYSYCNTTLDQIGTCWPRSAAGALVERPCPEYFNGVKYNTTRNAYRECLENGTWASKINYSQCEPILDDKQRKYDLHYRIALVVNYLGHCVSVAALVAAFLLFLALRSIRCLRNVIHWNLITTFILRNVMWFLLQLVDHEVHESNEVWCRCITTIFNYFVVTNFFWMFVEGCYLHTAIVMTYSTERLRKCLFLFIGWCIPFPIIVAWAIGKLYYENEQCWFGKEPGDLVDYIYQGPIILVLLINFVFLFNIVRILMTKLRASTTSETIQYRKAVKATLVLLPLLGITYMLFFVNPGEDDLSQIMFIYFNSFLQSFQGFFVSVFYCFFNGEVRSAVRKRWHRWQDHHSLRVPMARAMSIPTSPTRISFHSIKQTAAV
T6 sequence (P24387 whole entry): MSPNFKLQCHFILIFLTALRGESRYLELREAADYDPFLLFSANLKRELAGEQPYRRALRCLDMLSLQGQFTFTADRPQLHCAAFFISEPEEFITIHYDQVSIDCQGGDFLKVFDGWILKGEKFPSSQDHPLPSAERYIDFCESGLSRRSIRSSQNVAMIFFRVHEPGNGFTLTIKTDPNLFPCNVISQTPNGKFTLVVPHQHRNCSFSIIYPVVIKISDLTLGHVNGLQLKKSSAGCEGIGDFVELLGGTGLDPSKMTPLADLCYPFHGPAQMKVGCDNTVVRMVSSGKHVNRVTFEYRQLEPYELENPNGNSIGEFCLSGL

X-box-binding protein 1 = X-box-binding protein 1 (Homo sapiens, UniProt P17861); assay type: functional, Cricetulus griseus;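 also: confirmatory dose-response counter-screen serving a CHOP assay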
X-box-binding protein 1, sequence (P17861 whole entry): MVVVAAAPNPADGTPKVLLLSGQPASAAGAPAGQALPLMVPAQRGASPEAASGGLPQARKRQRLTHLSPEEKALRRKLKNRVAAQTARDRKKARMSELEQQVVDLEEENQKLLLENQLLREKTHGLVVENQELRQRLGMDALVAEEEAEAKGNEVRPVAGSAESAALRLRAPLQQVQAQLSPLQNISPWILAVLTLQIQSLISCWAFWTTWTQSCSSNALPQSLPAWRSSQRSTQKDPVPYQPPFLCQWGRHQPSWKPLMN

T3 sequence (Q01196 whole entry, the tested form may be a part): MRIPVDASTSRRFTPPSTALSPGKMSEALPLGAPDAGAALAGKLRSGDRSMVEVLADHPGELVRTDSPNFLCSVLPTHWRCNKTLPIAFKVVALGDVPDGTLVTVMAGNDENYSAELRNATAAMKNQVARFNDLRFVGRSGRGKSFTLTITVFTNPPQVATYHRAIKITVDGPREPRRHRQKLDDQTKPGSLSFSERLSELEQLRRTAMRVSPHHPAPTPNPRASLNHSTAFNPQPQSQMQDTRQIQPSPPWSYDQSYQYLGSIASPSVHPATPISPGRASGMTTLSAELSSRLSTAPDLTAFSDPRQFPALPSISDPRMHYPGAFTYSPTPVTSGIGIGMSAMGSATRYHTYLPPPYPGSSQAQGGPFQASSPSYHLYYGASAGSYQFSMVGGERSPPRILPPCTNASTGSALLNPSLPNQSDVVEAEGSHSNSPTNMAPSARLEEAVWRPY
T3 sequence (Q13951 whole entry, the tested form may be a part): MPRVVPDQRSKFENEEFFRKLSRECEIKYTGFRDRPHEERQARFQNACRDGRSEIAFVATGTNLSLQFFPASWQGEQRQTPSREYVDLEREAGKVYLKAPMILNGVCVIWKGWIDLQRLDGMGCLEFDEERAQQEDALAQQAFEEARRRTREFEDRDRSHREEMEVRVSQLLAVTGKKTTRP
Alkaline phosphatase, placental type, sequence (P05187 whole entry): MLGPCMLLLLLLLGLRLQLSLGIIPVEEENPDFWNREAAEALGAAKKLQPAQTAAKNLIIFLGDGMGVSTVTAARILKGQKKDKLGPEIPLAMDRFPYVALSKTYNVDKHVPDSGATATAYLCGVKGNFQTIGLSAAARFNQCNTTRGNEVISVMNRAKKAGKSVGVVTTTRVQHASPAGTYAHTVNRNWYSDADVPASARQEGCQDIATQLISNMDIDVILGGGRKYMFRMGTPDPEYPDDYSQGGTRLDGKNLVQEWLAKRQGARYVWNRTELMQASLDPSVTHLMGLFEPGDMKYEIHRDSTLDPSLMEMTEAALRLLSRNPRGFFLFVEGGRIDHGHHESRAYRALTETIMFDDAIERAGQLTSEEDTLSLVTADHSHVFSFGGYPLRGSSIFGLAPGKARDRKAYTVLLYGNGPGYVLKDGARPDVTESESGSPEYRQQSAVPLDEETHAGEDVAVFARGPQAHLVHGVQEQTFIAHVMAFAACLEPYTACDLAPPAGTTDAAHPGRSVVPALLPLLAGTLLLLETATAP
Hexokinase, sequence (Q38C41 whole entry): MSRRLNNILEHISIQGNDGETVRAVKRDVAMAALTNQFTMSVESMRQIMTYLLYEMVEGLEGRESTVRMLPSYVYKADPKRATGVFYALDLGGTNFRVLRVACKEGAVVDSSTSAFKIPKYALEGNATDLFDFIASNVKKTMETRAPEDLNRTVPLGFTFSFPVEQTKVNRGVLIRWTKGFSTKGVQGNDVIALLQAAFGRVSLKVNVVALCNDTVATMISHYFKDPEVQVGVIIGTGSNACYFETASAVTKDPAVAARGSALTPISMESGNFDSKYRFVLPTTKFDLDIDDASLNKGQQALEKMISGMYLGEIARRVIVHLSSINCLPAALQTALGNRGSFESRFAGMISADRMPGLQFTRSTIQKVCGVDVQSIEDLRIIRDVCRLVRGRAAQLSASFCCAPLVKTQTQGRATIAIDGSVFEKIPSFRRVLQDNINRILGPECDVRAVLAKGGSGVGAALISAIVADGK
Glucose-6-phosphate 1-dehydrogenase, sequence (P11413 whole entry): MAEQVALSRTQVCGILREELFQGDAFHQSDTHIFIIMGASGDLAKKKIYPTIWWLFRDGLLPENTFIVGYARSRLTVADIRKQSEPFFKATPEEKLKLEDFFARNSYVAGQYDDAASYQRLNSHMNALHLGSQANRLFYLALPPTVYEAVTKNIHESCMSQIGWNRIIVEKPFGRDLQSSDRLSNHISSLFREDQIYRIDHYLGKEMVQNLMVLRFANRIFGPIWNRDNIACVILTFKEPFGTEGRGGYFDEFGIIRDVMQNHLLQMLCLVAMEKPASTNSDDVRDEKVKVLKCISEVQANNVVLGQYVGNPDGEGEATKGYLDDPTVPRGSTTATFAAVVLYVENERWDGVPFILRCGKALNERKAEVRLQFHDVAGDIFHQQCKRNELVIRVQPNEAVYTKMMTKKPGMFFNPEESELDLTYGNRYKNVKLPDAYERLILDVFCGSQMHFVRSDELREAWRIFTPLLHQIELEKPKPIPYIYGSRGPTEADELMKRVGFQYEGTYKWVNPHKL
Large T antigen, sequence (P03070 whole entry): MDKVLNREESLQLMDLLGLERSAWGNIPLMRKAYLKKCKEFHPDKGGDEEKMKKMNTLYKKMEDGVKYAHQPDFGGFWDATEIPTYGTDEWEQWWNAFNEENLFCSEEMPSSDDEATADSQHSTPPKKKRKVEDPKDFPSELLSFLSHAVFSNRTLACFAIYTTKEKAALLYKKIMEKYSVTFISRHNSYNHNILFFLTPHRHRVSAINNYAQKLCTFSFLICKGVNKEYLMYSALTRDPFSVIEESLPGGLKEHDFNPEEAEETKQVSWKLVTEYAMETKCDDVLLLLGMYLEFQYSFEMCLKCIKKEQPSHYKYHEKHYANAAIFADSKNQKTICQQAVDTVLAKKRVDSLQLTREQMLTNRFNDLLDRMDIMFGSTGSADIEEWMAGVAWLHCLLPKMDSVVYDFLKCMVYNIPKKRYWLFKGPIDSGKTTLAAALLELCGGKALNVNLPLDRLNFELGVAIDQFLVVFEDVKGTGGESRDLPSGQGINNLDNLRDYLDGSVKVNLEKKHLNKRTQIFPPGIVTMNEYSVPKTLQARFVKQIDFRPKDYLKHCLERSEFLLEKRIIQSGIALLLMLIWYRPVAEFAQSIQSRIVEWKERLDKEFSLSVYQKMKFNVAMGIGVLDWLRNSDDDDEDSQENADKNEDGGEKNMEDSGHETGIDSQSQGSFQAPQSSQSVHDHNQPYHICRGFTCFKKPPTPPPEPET
Nonstructural protein 1, sequence (Q194T2 whole entry): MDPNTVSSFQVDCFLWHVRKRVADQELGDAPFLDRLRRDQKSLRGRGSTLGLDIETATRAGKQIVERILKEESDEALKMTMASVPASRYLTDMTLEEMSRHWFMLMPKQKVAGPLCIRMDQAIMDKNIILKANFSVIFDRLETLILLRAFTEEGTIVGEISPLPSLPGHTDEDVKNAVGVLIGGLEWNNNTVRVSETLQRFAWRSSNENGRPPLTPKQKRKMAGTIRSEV
Intestinal-type alkaline phosphatase, sequence (P09923 whole entry, the tested form may be a part): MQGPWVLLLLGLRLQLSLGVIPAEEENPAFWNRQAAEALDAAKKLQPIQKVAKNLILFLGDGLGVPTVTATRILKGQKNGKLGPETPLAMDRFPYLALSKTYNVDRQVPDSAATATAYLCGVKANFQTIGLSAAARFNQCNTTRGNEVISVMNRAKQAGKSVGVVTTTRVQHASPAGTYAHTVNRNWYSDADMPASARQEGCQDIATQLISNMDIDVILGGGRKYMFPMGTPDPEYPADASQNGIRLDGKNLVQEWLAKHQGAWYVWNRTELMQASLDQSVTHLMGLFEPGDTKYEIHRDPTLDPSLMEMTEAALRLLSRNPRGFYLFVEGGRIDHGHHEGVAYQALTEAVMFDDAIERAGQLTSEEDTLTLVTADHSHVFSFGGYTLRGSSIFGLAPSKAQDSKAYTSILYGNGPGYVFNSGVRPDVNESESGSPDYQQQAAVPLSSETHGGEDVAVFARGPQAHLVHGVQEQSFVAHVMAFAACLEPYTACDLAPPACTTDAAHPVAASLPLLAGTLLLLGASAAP
CAAX prenyl protease 2, sequence (Q03530 whole entry): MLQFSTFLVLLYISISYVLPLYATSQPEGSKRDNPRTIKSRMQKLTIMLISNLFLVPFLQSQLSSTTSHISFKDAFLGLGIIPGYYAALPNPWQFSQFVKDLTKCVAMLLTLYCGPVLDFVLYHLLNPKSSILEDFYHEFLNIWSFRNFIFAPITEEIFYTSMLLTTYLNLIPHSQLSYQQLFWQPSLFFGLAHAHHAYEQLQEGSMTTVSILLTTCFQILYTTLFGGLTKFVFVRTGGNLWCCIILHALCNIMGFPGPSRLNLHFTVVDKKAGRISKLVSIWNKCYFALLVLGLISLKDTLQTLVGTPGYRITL
Trypsin, sequence (P00761 whole entry): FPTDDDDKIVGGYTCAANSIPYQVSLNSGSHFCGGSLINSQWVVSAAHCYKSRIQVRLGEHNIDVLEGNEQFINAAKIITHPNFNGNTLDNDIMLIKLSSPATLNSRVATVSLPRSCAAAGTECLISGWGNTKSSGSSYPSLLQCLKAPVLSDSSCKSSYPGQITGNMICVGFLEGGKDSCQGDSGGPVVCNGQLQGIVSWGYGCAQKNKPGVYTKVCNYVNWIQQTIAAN

Compound: Cn1c2ccccc2c(=O)c2c(=O)n(-c3ccc(F)cc3)c(-c3cccs3)nc21
- EC50 (Streptococcus): 9.21 µM (active)
- IC50 (Hexokinase HKDC1 [1]): 2.72 µM (active)
- EC50 [2]: 9.47 µM (active)

Compound: O=C(O)c1ccc(-c2ccc(O)c(F)c2)cc1
- IC50 (Large T antigen): 6.76 µM (active)
- AC50 (Trypsin): 11.9 µM (active)
- AC50 (CAAX prenyl protease 2): > 100 µM (inactive)

Compound: Cc1ccc(-c2nnc(SCC(=O)c3ccc(O)c(O)c3)n2-c2ccc(Cl)cc2)cc1
- IC50 [3]: 15.3 µM (active)
- IC50 [4]: > 100 µM (inactive)

Compound: Cc1ccc(O)c(-c2cc(C(=O)NCc3ccc4c(c3)OCO4)[nH]n2)c1
- EC50 [5]: 13 µM (active)

Compound: COc1ccc2o/c(=N\O)c(C(=O)Nc3ccccc3OC)cc2c1
- IC50 [6]: 59 µM (inactive)
- IC50 [7]: 60.5 µM (inactive)

Compound: CC(N/N=C(\S)N1CCN(c2ccccn2)CC1)c1nccc2ccccc12 (stereo not drawn)
- AC50 [8]: < 260 nM (active)
- EC50 (Hexokinase-1): > 80 µM (inactive)
- AC50 [9]: 2.58 µM (active)
- IC50 (Nonstructural protein 1): 2.43 µM (active)
- EC50 (Hexokinase HKDC1 [10]): 2.19 µM (active)

Compound: O=C(NC1(C(F)(F)F)Oc2ccccc2O1)c1ccc(Cl)cc1
- IC50 [3]: > 100 µM (inactive)
- IC50 [4]: > 100 µM (inactive)

Compound: Nc1c(C(=O)NCc2ccco2)c2nc3ccccc3nc2n1CCc1ccccc1F
- IC50 [6]: 13.7 µM (active)
- CC50 [11]: 24.3 µM (active)
- IC50 [7]: 86.3 µM (inactive)

Compound: COC(=O)c1ccc(NC(=O)CSc2n[nH]c(-c3ccncc3)n2)cc1
- IC50 (Hexokinase HKDC1 [1]): 17.6 µM (active)

Compound: N#Cc1ccc2sn(-c3ccccc3)c(=O)c2c1
- EC50 [12]: > 104 µM (inactive)
- IC50 (Hexokinase): 2.97 µM (active)
- IC50 [13]: 14.1 µM (active)

Compound: COC(=O)c1ccc(Cl)cc1NC(=O)c1ccccc1OC
- IC50 (Hexokinase): > 25 µM (inactive)

Compound: CC1(c2ccc(OC(F)F)cc2)NC(=O)N(/N=C/c2c(O)ccc3ccccc23)C1=O (stereo not drawn)
- EC50 [14]: > 53 µM (inactive)
- Absolute IC50 (XBP1) (X-box-binding protein 1): 10 µM

Source: ChEMBL document CHEMBL1201862, “PubChem BioAssay data set” (2004)
